# Results from patent US12331051B2 (priority 2021, dated 2025).
# pEC50, pIC50, pKi: −log10 of the molar value. Like-named read-outs stand apart in the source and are kept apart here.
# Columns and labels:
# [1] = target: T1, 5-HT2A receptor (5-HT2AR) (Homo sapiens, UniProt P28223); experiment: Functional assay in HEK-293 cells (IP1); format: cell-based
# T1 construct: expressed in transfected cells; host or cells: HEK-293
# Experimental: (§1) Neuro-receptor binding and functional effects of the “E559 polymorph” was examined by analyzing binding affinity [Ki (nM)], functional agonist activity [EC50 (nM)], and functional antagonist activity [IC50 (nM)] against a panel of key receptors in neurophysiological disorders. Binding and functional assays were performed at “E559 polymorph” concentrations of 0.0003, 0.003, 0.01, 0.03, 0.1, 0.3, 1, and 10 μM. In binding assays, cell membrane homogenates, expressing each receptor target, were incubated with the corresponding radio-ligand in absence or presence of several concentration of the “E559 polymorph” compound. The measurement of binding affinity of the “E559 polymorph” is represented in TABLE XIII by Ki (nM) which was calculated as percent inhibition of the binding of a radioactively labeled reference ligand at each receptor. In functional assays the HEK-293 cells expressing each receptor target were suspended in buffer and distribute in microplates and incubated for 30 minutes at room temperature or 37° C. in the presence of buffer alone (basal control), the reference agonist or antagonist, or the “E559 polymorph. Following incubation, the cells were lysed and the appropriate fluorescent probe (Ca2+ flux, cAMP, or IP1) were added for 60 minutes to measure the fluorescence transfer at the appropriate wavelength using a microplate reader. The cellular agonist effect (EC50) was calculated as a percent of control response to a known reference agonist and the cellular antagonist effect (IC50) was calculated as a percent inhibition of control reference agonist response for each receptor.
# (§2) The functional agonist activity [EC50 (nM), Emax], and functional antagonist activity [IC50 (nM)] of the 5R:8S stereoisomer of the “E559 polymorph” (5R:8S E558) was compared with the “E559 polymorph” (a 5R:8R stereoisomer) at selected serotonin receptors. The assays were performed as described in Example 6.
# [2] = target: T2, Serotonin 2B receptor (5-HT2BR) (Homo sapiens, UniProt P41595); experiment: Functional assay in HEK-293 cells (IP1); format: cell-based
# T2 construct: expressed in transfected cells; host or cells: HEK-293
# T2 sequence (P41595 whole entry): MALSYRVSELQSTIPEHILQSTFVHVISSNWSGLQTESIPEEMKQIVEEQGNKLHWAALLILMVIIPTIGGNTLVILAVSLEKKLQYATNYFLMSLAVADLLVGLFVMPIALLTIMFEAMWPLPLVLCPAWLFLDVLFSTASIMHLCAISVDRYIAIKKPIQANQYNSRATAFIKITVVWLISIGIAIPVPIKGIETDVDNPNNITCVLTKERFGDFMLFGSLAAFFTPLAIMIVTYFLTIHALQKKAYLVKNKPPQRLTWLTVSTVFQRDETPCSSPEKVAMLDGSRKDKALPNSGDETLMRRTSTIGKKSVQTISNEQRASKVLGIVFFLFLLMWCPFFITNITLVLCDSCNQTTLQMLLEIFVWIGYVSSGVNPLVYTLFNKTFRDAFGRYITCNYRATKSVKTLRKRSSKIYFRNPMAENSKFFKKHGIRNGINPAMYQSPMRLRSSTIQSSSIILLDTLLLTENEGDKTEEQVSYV
# Experimental: as §1, §2
# D1 dopamine receptor = D1 dopamine receptor (Homo sapiens, UniProt P21728); experiment: Functional assay in HEK-293 cells (cAMP); format: cell-based; set-up: expressed in transfected cells; host or cells: HEK-293
# Sequence of D1 dopamine receptor (P21728 whole entry): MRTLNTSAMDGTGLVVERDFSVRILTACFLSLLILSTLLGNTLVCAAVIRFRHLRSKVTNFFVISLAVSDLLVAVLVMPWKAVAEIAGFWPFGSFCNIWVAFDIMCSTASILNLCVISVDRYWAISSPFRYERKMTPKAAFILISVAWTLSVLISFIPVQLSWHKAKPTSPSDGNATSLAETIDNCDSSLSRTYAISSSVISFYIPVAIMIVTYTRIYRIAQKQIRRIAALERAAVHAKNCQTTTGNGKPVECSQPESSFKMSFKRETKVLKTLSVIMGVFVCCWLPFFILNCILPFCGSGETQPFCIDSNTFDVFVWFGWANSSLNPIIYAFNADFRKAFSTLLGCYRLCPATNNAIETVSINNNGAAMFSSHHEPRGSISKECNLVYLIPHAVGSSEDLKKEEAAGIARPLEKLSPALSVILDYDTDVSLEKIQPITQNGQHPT
# Experimental: Neuro-receptor binding and functional effects of the “E559 polymorph” was examined by analyzing binding affinity [Ki (nM)], functional agonist activity [EC50 (nM)], and functional antagonist activity [IC50 (nM)] against a panel of key receptors in neurophysiological disorders. Binding and functional assays were performed at “E559 polymorph” concentrations of 0.0003, 0.003, 0.01, 0.03, 0.1, 0.3, 1, and 10 μM. In binding assays, cell membrane homogenates, expressing each receptor target, were incubated with the corresponding radio-ligand in absence or presence of several concentration of the “E559 polymorph” compound. The measurement of binding affinity of the “E559 polymorph” is represented in TABLE XIII by Ki (nM) which was calculated as percent inhibition of the binding of a radioactively labeled reference ligand at each receptor. […] Following incubation, the cells were lysed and the appropriate fluorescent probe (Ca2+ flux, cAMP, or IP1) were added for 60 minutes to measure the fluorescence transfer at the appropriate wavelength using a microplate reader. The cellular agonist effect (EC50) was calculated as a percent of control response to a known reference agonist and the cellular antagonist effect (IC50) was calculated as a percent inhibition of control reference agonist response for each receptor.
# [3] = target: ADRa2B (α2B adrenergic receptor) (Homo sapiens, UniProt P18089); experiment: BRET-based G protein dissociation assay; format: cell-based
# Sequence of ADRa2B (α2B adrenergic receptor) (P18089 whole entry): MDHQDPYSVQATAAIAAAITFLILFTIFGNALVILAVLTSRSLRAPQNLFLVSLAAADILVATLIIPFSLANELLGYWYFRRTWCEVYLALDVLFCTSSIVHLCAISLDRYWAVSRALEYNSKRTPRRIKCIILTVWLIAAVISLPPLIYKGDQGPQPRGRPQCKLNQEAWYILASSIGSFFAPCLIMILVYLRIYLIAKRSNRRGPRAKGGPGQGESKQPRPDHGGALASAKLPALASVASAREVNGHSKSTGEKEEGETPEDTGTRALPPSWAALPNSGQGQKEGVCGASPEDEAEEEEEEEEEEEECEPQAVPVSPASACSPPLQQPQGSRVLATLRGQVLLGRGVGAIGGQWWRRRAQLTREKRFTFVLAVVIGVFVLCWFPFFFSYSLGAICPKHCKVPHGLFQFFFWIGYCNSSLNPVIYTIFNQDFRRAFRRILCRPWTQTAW
# [4] = target: T3, Beta 2 adrenergic receptor (Homo sapiens, UniProt P07550); experiment: Radioligand binding, cell membrane homogenates
# T3 construct: expressed in transfected cells; host or cells: HEK-293
# T3 sequence (P07550 whole entry): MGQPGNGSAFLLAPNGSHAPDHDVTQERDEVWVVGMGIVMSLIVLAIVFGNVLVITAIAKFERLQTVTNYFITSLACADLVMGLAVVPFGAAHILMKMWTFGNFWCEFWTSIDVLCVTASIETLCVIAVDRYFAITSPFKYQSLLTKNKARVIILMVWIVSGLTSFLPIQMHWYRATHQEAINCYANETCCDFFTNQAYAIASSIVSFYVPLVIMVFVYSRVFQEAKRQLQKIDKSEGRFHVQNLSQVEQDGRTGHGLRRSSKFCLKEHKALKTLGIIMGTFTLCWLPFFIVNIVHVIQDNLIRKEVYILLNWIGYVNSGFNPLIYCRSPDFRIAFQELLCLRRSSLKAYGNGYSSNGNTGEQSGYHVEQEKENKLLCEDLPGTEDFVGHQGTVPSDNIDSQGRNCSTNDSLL
# Experimental: as §1
# [5] = target: T4, Serotonin 2C receptor (5-HT2CR) (Homo sapiens, UniProt P28335); experiment: Radioligand binding, cell membrane homogenates
# T4 construct: expressed in transfected cells; host or cells: HEK-293
# T4 sequence (P28335 33-458): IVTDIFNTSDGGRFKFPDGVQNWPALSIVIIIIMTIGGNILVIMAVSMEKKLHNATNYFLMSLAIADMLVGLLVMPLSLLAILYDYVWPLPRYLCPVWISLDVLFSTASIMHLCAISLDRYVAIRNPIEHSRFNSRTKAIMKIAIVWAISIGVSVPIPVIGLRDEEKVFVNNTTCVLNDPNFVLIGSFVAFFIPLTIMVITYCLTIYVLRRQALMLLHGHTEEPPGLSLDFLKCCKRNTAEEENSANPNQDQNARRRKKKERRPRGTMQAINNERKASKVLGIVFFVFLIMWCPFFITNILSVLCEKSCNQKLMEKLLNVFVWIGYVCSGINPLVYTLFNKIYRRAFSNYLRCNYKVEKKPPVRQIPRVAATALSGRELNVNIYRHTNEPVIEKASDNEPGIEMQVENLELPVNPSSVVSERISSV
# Experimental: as §1
# [6] = Pharmacokinetic study, single IP injection, plasma and brain by LC-MS/MS; format: in vivo, CD-1 mice; conditions: IP 0.75, 2.25 or 6.75 mg/kg, male and female mice
# Experimental: A pharmacokinetic (PK) study of the “E559 polymorph” was conducted following a single intraperitoneal (IP) injection in CD-1 mice. PK analysis of the “E559 polymorph” was performed in plasma samples and in brain tissue taken at different time points post injection. Three groups of male mice and three groups of female mice (n=24 per group) were administered “E559” at different doses (0.75, 2.25, or 6.75 mg/kg) by IP injection at time zero. In each dose group, three mice/sex were sacrificed to collect plasma and brain samples at pre-dose, and 0.17, 0.5, 1, 2, 4, 8, and 24 hours post-dose. Levels of the “E559 polymorph” in plasma and brain tissue were assessed by LC-MS/MS method. Briefly, to extract the plasma samples, 200 μL of acetonitrile containing 10 ng/mL LSD-d3 was added to 50 μL of plasma. The mixture was vortexed vigorously, centrifuged (13,000 rpm) for 2 min at 4° C., and then 50 μL of supernatant was combined with 200 μL methanol/water (1:1, v/v) for LC-MS/MS analysis. Brain tissues were weighed and homogenized for ˜1 min in cold acetonitrile at a ratio of 1:1.5 (w/v) brain tissue to extraction solvent. The brain samples were then centrifuged at 13,000 rpm for 2 min at 4° C. and the supernatant was collected for LC-MS/MS analysis. In LC-MS/MS method, isocratic elution was performed on an ACE Excel 5 SuperC18™ column at 25° C., with a run time of 6.5 min. The mobile phase consisted of methanol-water (8:2, v/v) plus 0.1% NH4OH at a flow rate of 0.8 mL/min. The injection volume was 10 μL/sample. […]
# The “E559 polymorph” was quantified by selected reaction monitoring of the following mass transitions (2-Br-LSD m/z 403.3→302, LSD-d3 internal standard m/z 327.2→226.1). The quantification of the “E559 polymorph” concentration in samples was achieved by using appropriate calibration standards. […] The pharmacokinetic parameters were determined by the non-compartmental analysis using the validated Phoenix®WinNonlin® version 8.2 software (Certara Inc).
# [7] = HEK293, IP1, ligand 5-HT, read-out: Functional Assay (agonist) Emax
# [8] = read-out: Funcational Assay (antagonist) IC50, IP1, ligand 5-HT
# [9] = read-out: Functional Assay (agonist) EC50, IP1, ligand 5-HT
# T1 sequence (P28223 whole entry): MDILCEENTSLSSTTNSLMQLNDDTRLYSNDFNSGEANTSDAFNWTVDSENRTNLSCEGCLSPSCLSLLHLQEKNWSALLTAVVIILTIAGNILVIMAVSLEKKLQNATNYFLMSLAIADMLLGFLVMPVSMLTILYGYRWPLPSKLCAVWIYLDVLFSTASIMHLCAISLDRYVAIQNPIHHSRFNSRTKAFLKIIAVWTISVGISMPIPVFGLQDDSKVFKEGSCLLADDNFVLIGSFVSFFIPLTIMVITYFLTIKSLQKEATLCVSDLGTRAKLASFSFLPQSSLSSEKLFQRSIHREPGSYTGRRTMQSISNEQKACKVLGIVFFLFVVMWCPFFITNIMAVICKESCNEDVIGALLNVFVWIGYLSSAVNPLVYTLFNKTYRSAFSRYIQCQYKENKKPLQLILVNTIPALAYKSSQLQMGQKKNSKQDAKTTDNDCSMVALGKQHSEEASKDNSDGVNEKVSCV
smiles,measurement,setting,value
"CCN(CC)C(=O)[C@@H]1C=C2c3cccc4[nH]c(Br)c(c34)C[C@H]2N(C)C1 [E559, (5R, 8R)-2-Bromo-9,10-didehydro-N,N-diethyl-6-methylergoline-8-carboxamide hemi-D-tartrate]",pEC50,[1],7.96
same,pIC50,[1],7.60
same,Emax,[1]; [7],99%
same,pIC50,[1]; [8],7.60
same,pEC50,[1]; [9],7.96
same,pEC50,[2],< 5.00
same,pIC50,[2],7.01
same,Emax,[2]; [7],0%
same,pIC50,[2]; [8],7.01
same,pEC50,[2]; [9],< 5.00
same,pEC50,D1 dopamine receptor,< 5.00
same,pIC50,D1 dopamine receptor,6.09
same,Kb,[3],79.2 nM
same,pKi,[4],7.06
same,pKi,[5],7.72
same,crossing of the blood-brain barrier (brain PK),[6],can readily cross the blood-brain barrier
same,plasma levels,[6],increases in time-dependent and dose-dependent manners
same,time to appearance in plasma post dose,[6],10 min
